Structures can show the parent of a compound that is named as a salt.
What was measured:
[1] = molecular target: T1, recombinant human 5-HT6 receptor (Homo sapiens, UniProt P50406); assay: Antagonistic activity towards serotonin 5-HT6 receptors, cAMP cell function experiment; type: cell-based; settings: HEK 293 cells expressing recombinant human 5-HT6 receptor; cAMP response to 10 μM serotonin; read-out: IC50, ability to block serotonin 5-HT6 receptors in the setting of cell function experiments
T1 construct: host or cells: HEK 293 cells with tetracycline-induced T-Rex system (Invitrogen)
Description: Determination of antagonistic activity of substituted 8-sulfonyl-2,3,4,5-tetrahydro-1H-γ-carbolines of the general formula 1 towards serotonin 5-HT6 receptors. HEK 293 cells with tetracycline-induced T-Rex system (Invitrogen, USA) consistently expressing recombinant human 5-HT6 receptor, production of Etogen Scientific (USA), were used. The cells were grown in DMEM/10% FBS/1% AAS medium with Blasticidine S and Zeocin (both—Invitrogen, USA). According to the method worked up by the producer of T-Rex system tetracycline hydrochloride was added to the medium with the cells for the purpose of activation of 5-HT6 receptor expression. The cells were embedded in 96-well plates (30,000-40,000 cells per well) and incubated in 5%-CO2 incubator at 37° C. for 24 hs. Before experiments cells medium was replaced by Hank's balanced salt solution (HBSS), comprising 0.137 M NaCl, 5.4 mM KCl, 0.25 mM Na2HPO4, 0.44 mM KH2PO4, 1.3 mM CaCl2, 1.0 mM MgSO4, 5 mM HEPES (pH 7.4), 0.05% BSA and 1 mM IBMX. The tested compounds of general formula 1 were added to the cells in various concentrations. After incubation of the cells for 15 min at room temperature serotonin was added to them up to final concentration of 10 μM and incubation was continued for 30 min. The newly formed cAMP was determined by reagent kit LANCE cAMP Kit, according to the method described by the kit manufacturer […] (PerkinElmer, CIIIA). […] The data given testify that novel γ-carbolines of the general formula 1 are effective serotonin 5-HT6 receptor antagonists. Some of γ-carbolines of the general formula 1 have IC50<0.5 μM in the setting of cell function experiments (IC50—antagonist concentration blocking 5-HT6 receptors for 50%).

[2] = tested on: male mice of BALB/c line; assay: Mice Behavior in the Elevated Plus Maze test; type: in vivo
Description: The experiments were carried out in aged male mice of BALB/c line weighing about 25 g. Animals were housed 5-7 per cage with water and food available. None of animals was acquainted with experimental set-up before. Each experimental group included 8 animals.
The procedure used was described earlier by Lister (Lister R. G. The use of a plus-maze to measure anxiety in the mouse. Psychopharmacology, 1987; 92:180-185). Plexiglass set-up consisted of two opened arms of 30×5 cm size and two closed arms of 30×5×15 cm size was used. Side arms were closed with transparent plexiglass and were connected with central zone via platform of 5×5 cm size. Opened arms, central platform and floor were made of black plexiglass. The set-up was mounted on a metallic base which was placed 38.5 cm above floor level.
Animals were injected intraperitoneally with placebo, Buspirone (5 mg/kg, 30 minutes before training), Lorazepam (0.05 mg/kg, 60 minutes before training) or with one of the compounds of the general formula 1, for example, compound 1.1.1(4).HCl or compound 1.2.1(3).HCl in doses 0.05 mg/kg and 0.2 mg/kg. Buspirone and Lorazepam were introduced in maximal effective dose, at which side sedative effect and general decrease of exploratory activity (number of arm entries during the test) were not observed yet.
Each mouse was placed in maze center with its head towards the opened arm. Over a period of 5 minutes the sequence and duration of arm entries were registered by means of computer program. Criterion for entry is location of all animal's paws inside the arm at the same time. Index of preference was calculated as ratio of the time spent by animal in opened arms as well as the number of entries into opened arms to the total time spent by it in opened and closed arms or, respectively, to the whole number of entries to arms of both types. The number of defecations left by mouse was regarded as additional parameter characterizing anxiety state.

[3] = tested on: male mice of SHK line; assay: Novel Object Recognition test, Scopolamine-disturbed recognition; type: in vivo; settings: Scopolamine 1 mg/kg
Description: The test was carried out in aged male mice of SHK line. Plexiglass plus maze, consisted of 4 dead-end chambers (numbered 1, 2, 3, 4), joined together through the fifth central chamber, was used in experiments. Mouse was placed into central chamber and allowed to explore the maze. Floor was cleaned after each animal. The sequence of chamber entries and duration of visits were registered by observer. Test was ended after 13 entries into dead-end chambers. Criterion for entry was location of all animal's paws inside the chamber at the same time.
During the training an animal was placed in the maze with one equiform bowl in each side chamber. In the course of testing (one hour after training) two opposite standing bowls were replaced by identical flasks, and animal was allowed to explore the maze. The time spent by animal in each side chamber was registered during the periods of training and testing. Index of novel object recognition was calculated as ratio of time spent by animal in side chambers with novel objects to the total time spent by it in all side chambers. In comparison with the training phase the appearance of novel object extends the time spent by animal in the chamber with novel object (so-called effect of novel object recognition). The recognition of novel objects was disturbed under action of Scopolamine administered in 1 mg/kg dose intraperitoneally 30 minutes before training, and recognition index was decreased.

T1 sequence (P50406 whole entry): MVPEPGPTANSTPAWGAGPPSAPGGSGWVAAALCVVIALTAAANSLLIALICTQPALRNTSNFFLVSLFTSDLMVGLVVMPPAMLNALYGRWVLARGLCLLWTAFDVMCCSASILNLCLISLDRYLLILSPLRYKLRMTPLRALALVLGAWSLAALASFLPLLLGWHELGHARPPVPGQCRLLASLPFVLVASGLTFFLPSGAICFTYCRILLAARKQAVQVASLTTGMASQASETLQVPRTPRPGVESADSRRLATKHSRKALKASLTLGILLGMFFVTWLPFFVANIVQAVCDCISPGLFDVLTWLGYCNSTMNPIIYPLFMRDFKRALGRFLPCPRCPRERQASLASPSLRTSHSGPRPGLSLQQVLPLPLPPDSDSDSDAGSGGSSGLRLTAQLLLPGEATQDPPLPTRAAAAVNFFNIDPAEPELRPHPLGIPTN

| Compound | IC50 [1] | also measured |
| --- | --- | --- |
| CN1CCc2[nH]c3ccc(S(=O)(=O)c4cccnc4)cc3c2C1 [1.1(1)•2HCl] | 0.085 µM | – |
| CN1CCc2[nH]c3ccc(S(=O)(=O)c4ccncc4)cc3c2C1 [1.1(2)•2HCl] | 6.9 µM | – |
| Cc1ccc(S(=O)(=O)n2c3c(c4cc(S(=O)(=O)c5ccccc5)ccc42)CN(C)CC3)cc1 [1.1(10)•HCl, 2-Methyl-5-(4-methylphenylsulfonyl)-8-(phenylsulfonyl)-2,3,4,5-tetrahydro-1H-γ-caboline hydrochloride] | ~10 µM | – |
| CN1CCc2c(c3cc(S(=O)(=O)c4ccccc4)ccc3n2CCc2ccccn2)C1 [1.1(16)•2HCl] | 0.615 µM | – |
| CN1CCc2[nH]c3ccc(S(=O)(=O)c4cccc(F)c4)cc3c2C1 [1.1.1(3)•HCl] | 0.085 µM | – |
| CN1CCc2[nH]c3ccc(S(=O)(=O)N(C)C)cc3c2C1 [1.2(1), N,N,2-Trimethyl-2,3,4,5-tetrahydro-1H-γ-carboline-8-sulfonamide] | ~10 µM | – |
| O=S(=O)(Nc1cccc(F)c1)c1ccc2[nH]c3c(c2c1)CN(Cc1ccccc1)CC3 [1.2(6)•HCl] | 0.022 µM | – |
| CN1CCN(S(=O)(=O)c2ccc3[nH]c4c(c3c2)CN(C)CC4)CC1 [1.2(10)] | 62 µM | – |
| O=C1CC2(CCCC2)CC(=O)N1CCCCN1CCN(c2ncccn2)CC1 [Buspirone, reference compound] | – | anxiolytic effect in elevated plus maze ([2]; 5 mg/kg intraperitoneally, 30 minutes before training): well-marked anxiolytic effect |
| Cc1ccc2c(c1)c1c(n2CCc2ccc(C)nc2)CCN(C)C1 [Dimebon, reference compound] | – | prevention of Scopolamine influence on novel object recognition ([3]; 0.1 mg/kg intraperitoneally 5 minutes before training): could be prevented |
| O=C1Nc2ccc(Cl)cc2C(c2ccccc2Cl)=NC1O (stereo not drawn) [Lorazepam, reference compound] | – | anxiolytic effect in elevated plus maze ([2]; 0.05 mg/kg intraperitoneally, 60 minutes before training): well-marked anxiolytic effect |
| Nc1c2c(nc3ccccc13)CCCC2 [Tacrine, reference compound] | – | prevention of Scopolamine influence on novel object recognition ([3]; 10 mg/kg intraperitoneally 30 minutes before training): could be prevented |

— patent publication US20120071493A1, “SUBSTITUTED 8-SULFONYL-2,3,4,5-TETRAHYDRO-1H-GAMMA-CARBOLINES, LIGANDS AND PHARMACEUTICAL COMPOSITION; METHOD FOR THE PRODUCTION AND USE OF SAME” (priority 2009, published 2012)
